Patent publication US11434241B2, “Pyrimidine derivatives for prevention and treatment of bacterial infections” (UNIVERSITE DE LIEGE, priority 2018, dated 2022)
In brackets after ≈: the same amount, converted by molar mass. Where two headings read alike, the source gives them in different places.

What was measured:
[1] = system: S. aureus Xen29 (ATCC 12600); experiment: MIC determination on bioluminescent S. aureus Xen29; assay type: cell-based, Staphylococcus aureus; details: for MIC: Staphylococcus aureus; for antibacterial activity / inhibition of Xen29 growth (in words): MHB medium
Protocol: (§1) Further experiments are conducted using different strains of S. aureus, as clinically relevant Gram-positive bacterial strains: S. aureus ATCC 25904, methicillin-resistant S. aureus (MRSA) ATCC BAA-1556, Glycopeptide intermediate-resistant (GISA) S. aureus Mu-50 (ATCC 700695) in order to determine the Minimal Inhibitory Concentration (MIC) which is the minimal concentration required to prevent bacterial growth. The bioluminescent strain S. aureus Xen29 (ATCC 12600) was also used. This strain is derived from the parental strain S. aureus ATCC 12600, a pleural fluid isolate, which is also designated as NCTC8532.
(§2) A single colony selected from the different strains of S. aureus is resuspended and cultured in brain heart infusion (BHI) broth overnight (O/N) in aerobic conditions (37° C. with 220 rpm shaking), next day a 1:100 inoculum in Mueller-Hinton broth (MHB) is incubated in aerobic conditions for 3 hr (=OD0.08-0.1) and an inoculum of 1:300 dilution, corresponding to 3×10^5 CFU/ml, is incubated in presence or absence of different concentrations of the tested molecules in 1% DMSO. After O/N growth the OD of each culture was measured at 600 nm (OD600) in a spectrophotometer (Victor 3-Perkin Elmer). The MIC represents the concentration at which there is no visible growth of bacteria, i.e. ΔOD at 600 nm equal to zero (blank is the medium alone). […] The MIC of molecule 2329 against Glycopeptide intermediate-resistant (GISA) S. aureus Mu-50 (ATCC 700695) is in between 25 and 30 μM, while it is above 50 μM for molecules 2348, 2412, and 2452.
(§3) Further experiments are conducted using different strains of S. aureus, as clinically relevant Gram-positive bacterial strains: methicillin-resistant S. aureus (MRSA) ATCC BAA-1556 and S. aureus Xen29 (Perkin Elmer ATCC 12600).
(§4) To determine the MIC of the above mentioned molecules in MRSA or in Xen29, a single colony of MRSA or Xen29 is resuspended and cultured in brain heart infusion (BHI) broth overnight (O/N) in aerobic conditions (37° C. with 220 rpm shaking), next day a 1:100 inoculum in Mueller-Hinton broth (MHB) is incubated in aerobic conditions for 3 hr (OD=0.08-0.1) and an inoculum of 1:300 dilution, corresponding to 3×10^5 CFU/ml, is incubated in presence or absence of different concentrations of the tested molecules in 1% DMSO. After O/N growth the OD of each culture was measured at 600 nm (OD600) in a spectrophotometer (Victor 3-Perkin Elmer). The MIC represents the concentration at which there is no visible growth of bacteria, i.e. ΔOD at 600 nm equal to zero (blank is the medium alone).
(§5) Molecule 36z has been tested for its potential antibacterial activity by determining its minimal inhibitory concentration (MIC) according to protocols recommended by EUCAST to assess the efficacy of antibiotics against bacterial strains. In brief MIC in MRSA (ATCC BAA-1556) or in Xen29 (Perkin Elmer-ATCC 12600) for 36z (molecule 25 in WO2009/034386) was determined by culturing a single colony of MRSA or Xen29 in brain heart infusion (BHI) broth overnight (O/N) in aerobic conditions (37° C. with 220 rpm shaking), while MIC for MRSE (ATCC 35984) was determined by culturing MRSE in TSB O/N. Next day a 1:100 inoculum in Mueller-Hinton broth (MHB) is incubated in aerobic conditions for 3 hr (OD=0.08-0.1) and an inoculum of 1:300 dilution, corresponding to 3×10^5 CFU/ml, is incubated in presence or absence of different concentrations of the tested molecules in 1% DMSO. After O/N growth the OD of each culture was measured at 600 nm (OD600) in a spectrophotometer (Victor 3-Perkin Elmer). The MIC represents the concentration at which there is no visible growth of bacteria, i.e. ΔOD at 600 nm equal to zero (blank is the medium alone). No antibacterial activity was found against MRSA (ATCC BAA-1556), Xen29 (Perkin Elmer-ATCC 12600 or MRSE (ATCC 35984) strains when the molecule was used at concentrations up to 200 μM.

[2] = system: methicillin-resistant S. aureus (MRSA) ATCC BAA-1556; experiment: MIC determination on methicillin-resistant S. aureus; assay type: cell-based, Staphylococcus aureus; details: for MIC: Staphylococcus aureus; for antibacterial activity against MRSA (in words): MHB medium
Protocol: as §1, §2, §3, §4, §5

[3] = system: Staphylococcus aureus (Xen29-ATCC 12600) biofilm formation; experiment: S. aureus Xen29 biofilm formation (bioluminescence imaging, IVIS); assay type: cell-based; details: imaged every 60 min for 13 hours; for biofilm formation (photon signal per surface unit): 10 μM, vs vehicle DMSO 1%; for biofilm formation (photon signal per second, radiance): 20 μM, vs vehicle
Protocol: (§6) Bioluminescent S. aureus (Xen29, Perkin Elmer-(ATCC 12600)) is grown overnight in TSB medium, before being diluted 100 fold in fresh TSB, and incubated aerobically at 37° C. until bacteria culture reached an OD600 of 0.6 (corresponding to approximately 1-3×10^8 CFU/ml). Bacteria cultures are then diluted to 1×10^4 CFU/ml in fresh TSB. 600 μl aliquots of diluted bacteria suspensions are distributed in each well of a 48-well plate. Bacteria are allowed to adhere for 3 hours under static conditions at 37° C. After removing media, wells are rinsed 2 times with PBS to eliminate planktonic bacteria and re-filled with TSB supplemented with 0.5% glucose
(§7) […] Biofilm formation is imaged every 60 min, for 13 hours, using a IVIS camera system (Xenogen Corp.) Total photon emission from each well is then quantified using the Living Image software package (Xenogen Corp.).
as §6, with “suspensions were” for “suspensions are”
as §7
as §6, with “was” for “(Xen29, Perkin Elmer-(ATCC 12600)) is”, “O/N” for “overnight”, “were” for “are”, “TSB and aliquots of” for “TSB.”, “were” for “aliquots of diluted bacteria suspensions are”, “glucose. Molecules 2666 and 2511 were then added at 20 μM final concentration. Biofilm formation is imaged every 60 min, for 13 hours, using a IVIS camera system (Xenogen Corp.) Total photon emission from each well (photon/second:p/s) is then quantified using the Living Image software package (Xenogen Corp.).” for “glucose”

[4] = ATCC12600, read-out: MIC S. aureus Xen29

Row | SMILES | MIC [1, 4] | MIC ([2]; read-out: MIC S. aureus MRSA) | biofilm formation (photon signal per surface unit) [3] | antibacterial activity / inhibition of Xen29 growth (in words) [1] | MIC ([1]; ATCC12600, read-out: MIC Xen29) | antibacterial activity against MRSA (in words) [2] | MIC ([2]; read-out: MIC MRSA) | biofilm formation (photon signal per second, radiance) [3]
1 | C=CCn1cnc2c(N[C@@H]3C[C@H]3c3ccc(F)c(F)c3)nc(SCCC)nc21 [Molecule 2412, 9-allyl-N-((1R,2S)-2-(3,4-difluorophenyl)cyclopropyl)-2-(propylthio)-9H-purin-6-amine] | 20 to 25 µM (≈ 8.03 to 10 µg/mL) | 25 to 50 µM (≈ 10 to 20.1 µg/mL) | delay biofilm formation | – | – | – | – | –
2 | CCSc1nc(N[C@@H]2C[C@H]2c2ccc(F)c(F)c2)c2cnn(C)c2n1.Cl [Molecule 2666, N-((1R,2S)-2-(3,4-difluorophenyl)cyclopropyl)-6-(ethylthio)-1-methyl-1H-pyrazolo[3,4-d]pyrimidin-4-amine hydrochloride] | – | – | – | able to inhibit | 20 µM | active | 20 µM | inhibited biofilm growth
3 | CCCSc1nc(N[C@@H]2C[C@H]2c2ccc(F)c(F)c2)c2ncn(CC)c2n1 [Molecule 2348, N-((1R,2S)-2-(3,4-difluorophenyl)cyclopropyl)-9-ethyl-2-(propylthio)-9H-purin-6-amine] | 20 to 25 µM (≈ 7.79 to 9.74 µg/mL) | 25 µM (≈ 9.74 µg/mL) | fully prevented biofilm formation | – | – | – | – | –
4 | CCCSc1nc(N[C@@H]2C[C@H]2c2ccc(F)c(F)c2)c2ncn(C)c2n1 [Molecule 2329, N-((1R,2S)-2-(3,4-difluorophenyl)cyclopropyl)-9-methyl-2-(propylthio)-9H-purin-6-amine] | 20 to 25 µM (≈ 7.51 to 9.39 µg/mL) | 20 µM (≈ 7.51 µg/mL) | fully prevented biofilm formation | – | – | – | – | –
5 | C#CCn1cnc2c(N[C@@H]3C[C@H]3c3ccc(F)c(F)c3)nc(SCCC)nc21 [Molecule 2452, N-((1R,2S)-2-(3,4-difluorophenyl)cyclopropyl)-9-(prop-2-yn-1-yl)-2-(propylthio)-9H-purin-6-amine] | 20 to 25 µM (≈ 7.99 to 9.99 µg/mL) | 25 to 50 µM (≈ 9.99 to 20 µg/mL) | delay biofilm formation | – | – | – | – | –
6 | CCn1cnc2c(N[C@@H]3C[C@H]3c3ccc(F)c(F)c3)nc(SC)nc21 [Molecule 2511, N-((1R,2S)-2-(3,4-difluorophenyl)cyclopropyl)-9-ethyl-2-(methylthio)-9H-purin-6-amine] | – | – | – | able to inhibit | 30 µM (≈ 10.8 µg/mL) | active | 30 µM (≈ 10.8 µg/mL) | inhibited biofilm growth
